Data as given in PubChem BioAssay (NCI).
Where “and” joins values, the source holds several entries; their conditions need not be identical. Equal entries are not always repeated.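 Five concentrations, 48 hours, 96-well plates. The concentration for 50% growth inhibition is given as GI50. TGI denotes the concentration required for complete inhibition of growth.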

How the values were obtained:
Experiment in all cases: NCI tumour cell line growth inhibition, 48 h
HCT-116 colon = test system: HCT-116 colon
CCRF-CEM leukemia = test system: CCRF-CEM leukemia
OVCAR-4 ovarian = test system: OVCAR-4 ovarian
UACC-62 melanoma = test system: UACC-62 melanoma
PC-3 prostate = test system: PC-3 prostate
SN12C renal = test system: SN12C renal
COLO 205 colon = test system: COLO 205 colon
IGROV1 ovarian = test system: IGROV1 ovarian
SK-OV-3 ovarian = test system: SK-OV-3 ovarian
MOLT-4 leukemia = test system: MOLT-4 leukemia

Row | Structure (SMILES) | TGI (HCT-116 colon) | TGI (CCRF-CEM leukemia) | TGI (OVCAR-4 ovarian) | TGI (UACC-62 melanoma) | TGI (PC-3 prostate) | TGI (SN12C renal) | TGI (COLO 205 colon) | TGI (IGROV1 ovarian) | TGI (SK-OV-3 ovarian) | TGI (MOLT-4 leukemia) | GI50 (UACC-62 melanoma) | GI50 (SN12C renal) | GI50 (COLO 205 colon) | GI50 (IGROV1 ovarian)
1 | NC(Cc1ccc2nc3c4ccccc4c(=O)cc-3oc2c1)C(=O)O (stereo not given) | > 100 µM | > 100 µM | > 100 µM | > 100 µM | > 100 µM | > 100 µM | > 100 µM | > 100 µM | > 100 µM |  |  |  |  | 
2 | N/C1=C/C(=O)NC(=O)c2c(c3ccccc3oc2=O)C1 | > 100 µM | > 100 µM | > 100 µM | > 100 µM | > 100 µM | > 100 µM | > 100 µM | > 100 µM |  | > 100 µM |  |  |  | 
3 | CC(=O)c1ccc(NC(=O)C(=O)C(C#N)CC(C)(C)C=O)cc1 (stereo not given) | > 100 µM | > 100 µM | > 100 µM | > 100 µM |  | > 100 µM | > 100 µM | > 100 µM | > 100 µM | > 100 µM |  |  |  | 
4 | C/C(=N\Nc1nc2ccccc2s1)c1cc2ccccc2cn1 | 10.6 µM | 8.04 µM | 62.2 µM | 21.1 µM | > 100 µM | 30.8 µM | 13.3 µM | 16 µM | 10.7 µM |  |  |  |  | 
5 | CC(Oc1ccccc1)C(=O)NNC(=O)OC(C)(C)C (stereo not given) | > 100 µM | > 100 µM | > 100 µM | > 100 µM | > 100 µM | > 100 µM | > 100 µM | > 100 µM | > 100 µM | > 100 µM |  |  |  | 
6 | C[C@@H]1CC(=O)C[C@@H]2CC[C@H]3[C@@H]4CC[C@H](OC(=O)c5cccc6cc7ccccc7nc56)[C@H]4CC[C@@H]3[C@H]21 | 27.1 µM |  | 30.9 µM | 28.4 µM | 27.1 µM | 33.1 µM | 53.8 µM | 19.2 µM | 66.7 µM | 31.7 µM |  |  |  | 
7 | O=c1[nH]cnc2c(COCCO)c[nH]c12 |  | > 100 µM | > 100 µM | > 100 µM |  | > 100 µM | > 100 µM | > 100 µM | > 100 µM | > 100 µM |  |  |  | 
8 | Cn1cc(C(=O)c2ccccc2)cc(C(=O)c2ccccc2)c1=O |  | > 100 µM | > 100 µM | > 100 µM |  | > 100 µM | > 100 µM | > 100 µM | > 100 µM | > 100 µM |  |  |  | 
9 | COc1cc2c(/C=C3/C(=O)N(C)c4ccc(O)cc43)c(Cl)[nH]c2cc1C |  |  | 21.6 µM | 13.6 µM | 20.8 µM | 17 µM | 2.37 µM | 19.9 µM | 3.13 µM | 0.784 µM |  |  |  | 
10 | C/C(N=NS(=O)(=O)c1ccc([N+](=O)[O-])cc1)=C1\C=CC=CN1O | > 100 µM | > 100 µM | > 100 µM | > 100 µM |  | > 100 µM |  | > 100 µM | > 100 µM | > 100 µM |  |  |  | 
11 | COc1ccc(NC(=O)CC(=O)n2nc(C)c(N=Nc3ccccc3C(=O)O)c2C)cc1 | > 100 µM | > 100 µM | > 100 µM | > 100 µM |  | > 100 µM | > 100 µM | > 100 µM | 94.2 µM | > 100 µM |  |  |  | 
12 | CC(=O)OCC1OC(n2c(Br)nc3c2c(=O)n(C)c(=O)n3C)C(OC(C)=O)C1OC(C)=O (stereo not given) | > 100 µM |  | 83.6 µM | > 100 µM | > 100 µM | > 100 µM | > 100 µM | > 100 µM | > 100 µM | > 100 µM |  |  |  | 
13 | C[C@H](CCC1SC1(C)C)C1CCC2(C)C3=C(CC[C@]12C)[C@@]1(C)CC[C@H](O)C(C)(C)C1CC3 (stereo not given in full) | > 100 µM | > 100 µM | > 100 µM | > 100 µM |  | > 100 µM | > 100 µM | > 100 µM | > 100 µM | > 100 µM |  |  |  | 
14 | C#CCN(Cc1ccc2nc(-c3ccccc3)c(N)nc2c1)c1cc(OC)c(OC)c(OC)c1 | 57.7 µM | 44.8 µM | > 100 µM | 63.7 µM |  | > 100 µM | 42.8 µM | > 100 µM |  | 35.7 µM |  |  |  | 
15 | O=c1[nH]c(=O)n(COCc2ccccc2)cc1Nc1ccc(Br)cc1 | > 100 µM | > 100 µM | > 100 µM | > 100 µM | > 100 µM | > 100 µM | > 100 µM | > 100 µM |  | > 100 µM |  |  |  | 
16 | CN(C)c1ccc(/C=C/c2sc3ccccc3[n+]2C)cc1 | 10.9 µM and > 100 µM |  | 10.2 µM and 9.3 µM | 17 µM and 5.87 µM | 10.9 µM and 22.8 µM | 7.6 µM and 15.7 µM | 0.377 µM | 19.7 µM and 15.3 µM | 17.1 µM | 0.957 µM and 1.31 µM | 3.87 µM and 1.48 µM | 1.71 µM and 0.645 µM | 0.185 µM | 4.29 µM and 1.21 µM
17 | COc1cc(-c2c3c(cc4c2OCO4)[C@@H](Nc2ccc(-c4ccc(-c5ccc(N[C@@H]6c7cc8c(cc7C(c7cc(OC)c(O)c(OC)c7)[C@H]7C(=O)OC[C@H]67)OCO8)cc5)cc4)cc2)[C@H]2COC(=O)[C@@H]2C3)cc(OC)c1O (stereo not given in full) | 3.19 µM | > 100 µM |  |  | 8.37 µM | 24.4 µM | 3.34 µM | 2.68 µM | 10.1 µM |  |  |  |  | 
18 | Nc1nc(Cl)c(Cl)c(NCC2(O)CCC2)n1 | > 100 µM | > 100 µM | 69 µM | > 100 µM | > 100 µM | > 100 µM |  | > 100 µM | > 100 µM | > 100 µM |  |  |  | 
19 | COC(=O)C1(SC)C2CCC3C2CCC31 (stereo not given) | > 100 µM | > 100 µM | > 100 µM |  | > 100 µM | > 100 µM | > 100 µM | > 100 µM | > 100 µM | > 100 µM |  |  |  | 
20 | O=C(SCc1cccc2ccccc12)c1ccc(Cl)cc1 | > 100 µM | > 100 µM | > 100 µM | > 100 µM | > 100 µM | > 100 µM | > 100 µM | > 100 µM | > 100 µM |  |  |  |  | 
21 | COc1cc(C(C)O)c[n+](CCC2CNc3ccccc32)c1 (stereo not given) | > 100 µM | > 100 µM | > 100 µM | > 100 µM |  | > 100 µM | > 100 µM | > 100 µM |  | > 100 µM |  |  |  | 
22 | COc1cc2c(cc1OC)C(=O)/C(=C/c1cc(C)cc(C)c1)C2 | 11.6 µM |  | > 100 µM | > 84 µM | 24.2 µM | 32.6 µM | 0.346 µM | > 42.4 µM | > 32.9 µM | > 90.3 µM |  |  |  | 
